From patent US7109174B2, “Anticonvulsant derivatives useful for preventing the development of type II diabetes mellitus and syndrome X” (Ortho-McNeil Pharmaceutical, Inc., priority 2000, dated 2006)

Columns and labels:
[1] = test system: male mice (ob/ob); test: Old male ob/ob mice: topiramate in food for 110 days; body weight, HbA1C, glucose, triglycerides, insulin, skin lesions; type: in vivo; details: for BG / BW / HbA1c / Insulin / Triglycerides: 110 days; for initial total incidence of skin lesions: when the study initiated (before dosing)
Method: Five- to seven-week old male mice (ob/ob) were purchased from The Jackson Laboratory (Bar Harbor, Me.). Upon arrival the mice were quarantined for five days and housed individually in wire mesh cages with 2-inch square “nestlets”. The mice were maintained at an ambient temperature of 21 to 23° C. on a 12 hour-12 hour light-dark schedule and given access to water and powdered chow ad libitum.
Topiramate was administered orally as a trace constituent in the food (0.143 to 2.54 mg/g). A precise quantity of topiramate was mixed thoroughly into a known amount of powdered lab chow using a mortar and pestle to grind the drug into the chow, after which the contents were placed in a 165 ounce lidded polyethylene tub and blended by shaking and rotating the tub. The lab chow (5002M Certified Diet Meal, manufactured in Brentwood, Mo. by Purina Mills, Inc.) was not less than 20% protein, 4.5% fat, and 64.5% CHO. The quantity of topiramate added to the food was based on the consumption of chow recorded during the previous three- or four-day period. The powdered food was put into stainless steel/aluminum feeders designed to prevent the mice from dispersing, spilling or contaminating the food. Mice that were able to disperse or soil the food were excluded from the study.
Thirty two-week old mice were randomly divided into three groups: (1) a control group in which no topiramate was added to the food, and (2) a group in which topiramate was added to the food in amounts sufficient to give a daily dose of 20 mg/kg for the entire 110-day dosing period, and (3) a group in which topiramate was added to the food in amounts sufficient to give a daily dose of 60 mg/kg for the entire dosing period.
The animals in each group were monitored for body weight, food consumption, blood glucose, HbA1C, insulin, triglycerides and physical signs of Type II diabetes mellitus or poor health. Body weight and food consumption were recorded twice-weekly on a Monday/Thursday or Tuesday/Friday schedule 8 to 12 hours into the light portion of the light-dark cycle. Body weight and food consumption were recorded using a scale designed for weights under 200 g. […] The mice were checked for skin lesions, and if present, the degree of severity was noted and recorded. If the general health of a mouse had deteriorated to a degree considered life threatening the mouse was euthanized.
Mice were allowed access to food containing topiramate until a few hours before being sacrificed by decapitation. Blood was collected from the neck wound into a parafilm-lined funnel. The blood was then transferred into beakers containing heparin. Plasma was separated from red blood cells by centrifugation. The plasma was frozen for subsequent analyses. Blood glucose levels, insulin and triglycerides were quantitated in the plasma. Glycated hemoglobin was also measured. The glycated hemoglobin required a 50 μl sample of whole blood, which was removed from the funnel before centrifugation. The plasma samples were then collected without freezing. All samples were packed in ice and shipped on the day blood was collected for overnight delivery to AniLytics, Inc. (200 Girard St., Suite 200, Gaithersburg, Md. 20877). The samples analyzed by AniLytics were assayed using standard procedures established by commercial laboratories that perform blood chemistry analyses. Statistical analysis was performed to determine if the data passed a test for normality (fit a Gaussian distribution). […] The data for a group of TPM-treated mice were compared to the control group.
Following the above described procedure, the effect of topiramate (TPM) on body weight (BW), glycated hemoglobin (HbA1C), blood glucose levels (BG), triglyceride and insulin levels in male ob/ob mice, were determined, with results as listed in Table 11. The abbreviation N represents the number of animals per group.

[2] = test system: male Zucker diabetic fatty (ZDF/Gmi-Fa) rats; test: Plasma glucose, triglycerides and body weight change in male Zucker diabetic fatty rats, orally dosed for 14 days; type: in vivo; details: for Body Weight Change / Plasma Glucose Levels Plasma Conc. / Plasma Triglyceride Levels Plasma Conc.: ± sem
Method: Six week old male Zucker diabetic fatty (ZDF/Gmi-Fa) rats were purchased from Genetic Models, Inc. Indianapolis, Ind. The rats were housed in groups of four in hanging metal cages, at an ambient temperature of 68–72° F., on a 12 hour-12 hour light-dark schedule and given access to water and food ad libitum. Lean rats (ZDF/GMI−+/+or +/fa) were used as normal, non-diabetic controls. The diet was comprised of LabDiet 5008 breeding formula (PMI Nutrition Int'l, Brentwood, Mo.). The vehicle, used as a reference and for test compounds, was 0.5% methylcellulose dissolved in water. The compounds were either fully dissolved or uniformly suspended in the vehicle when administered to the […]. The rats were randomly separated into four groups of eight. The groups were as follows: one vehicle control group and three groups that each received one of three doses of TPM (30, 100, or 300 mg/kg, respectively). Topiramate or vehicle was administered orally by gavage once a day, for 14 consecutive days, during the 8th hour of the light portion of the light-dark cycle. At the start of the study, the rats were bled through a tail vein and plasma glucose and triglyceride levels were determined. Between 18 and 24 hours after the last dose was administered, blood samples were again taken via tail clip on day 1 (fed animals) and day 14 (fed animals). The plasma was collected into 2 mL heparinized snap-top polypropylene tubes, then placed in ice. Plasma was separated from blood cells by centrifugation (20 minutes at 1800 g). For samples not assayed immediately, the plasma was transferred into 96-well plates and frozen at −70° C. Body weights for the animals were determined at the start of the study and again after 14 days oral dosing. Glucose and triglycerides were assayed using standard procedures for blood clinical laboratories. Specifically, the samples were analyzed using an automated Hitachi 717 autoanalyzer (Boehringer Mannheim/Hitachi 717 Autoanalyzer, Boehringer Mannheim Laboratory Systems Division, Indianapolis, Ind.). A statistical analysis of data for the drug-treated groups compared to data for the vehicle group was performed using the one-way analysis of variance (ANOVA) with Dunnett's Multiple Comparisons test. Following the procedure described above, the effect of topiramate on plasma glucose, triglyceride levels and body weight changes was determined for male Zucker rats, orally dosed for 14 days, with results as listed in Table 6–8. The abbreviation N represents the number of animals per study group.

[3] = test system: human epilepsy; details: clinical trials; cited from earlier work
[4] = 30 mg/kg oral once a day, 14 days
[5] = 100 mg/kg oral once a day, 14 days
[6] = 100 mg/kg oral once a day, 14 days, P < 0.01
[7] = 300 mg/kg oral once a day, 14 days
[8] = 300 mg/kg oral once a day, 14 days, P < 0.01

CC1(C)O[C@@H]2[C@@H](CO[C@@]3(COS(N)(=O)=O)OC(C)(C)O[C@@H]23)O1 [Topiramate, 2,3:4,5-bis-O-(1-methylethylidene)-β-D-fructopyranose sulfamate]
BG ([1]; 20 mg/kg daily in food, n = 6): 229.2 ± 46.0 mg/dL
BW ([1]; 20 mg/kg daily in food, n = 6): 65.6 ± 2.8 g
HbA1c ([1]; 20 mg/kg daily in food, n = 6): 4.98 ± 0.6%
Insulin ([1]; 20 mg/kg daily in food, n = 6): 12.2 ± 1.9 ng/mL
Triglycerides ([1]; 20 mg/kg daily in food, n = 6): 104 ± 6.4 mg/dL
initial total incidence of skin lesions ([1]; 20 mg/kg group): 38%
mice died or had to be euthanized ([1]; 20 mg/kg, first 60 days of dosing): four
BW ([1]; 60 mg/kg daily in food, n = 7): 67.5 ± 1.6 g
HbA1c ([1]; 60 mg/kg daily in food, n = 7): 3.56 ± 0.4%
Insulin ([1]; 60 mg/kg daily in food, n = 7): 11.4 ± 2.1 ng/mL
Triglycerides ([1]; 60 mg/kg daily in food, n = 7): 88 ± 3.2 mg/dL
BG ([1]; 60 mg/kg daily in food, n = 7, P < 0.05): 144.3 ± 20.0 mg/dL
initial total incidence of skin lesions ([1]; 60 mg/kg group): 47%
mice died ([1]; 60 mg/kg, first 60 days of dosing): Two
total incidence of lesions versus control ([1]; 60 mg/kg/day, dosing period between 62 and 110 days): lower than in the control group
Plasma Glucose % Change from Diabetic Control [2, 4]: −24.9%
Plasma Glucose % of Diabetic Control [2, 4]: 75.1%
Plasma Triglyceride % Change from Diabetic Control [2, 4]: −20.4%
Plasma Triglyceride % of Diabetic Control [2, 4]: 79.6%
Body Weight Change [2, 4]: +95.5 ± 7.2 Gms
Plasma Glucose Levels Plasma Conc. ([2]; 30 mg/kg oral once a day, 14 days, P < 0.01): 247.4 ± 17.8 mg/dL
Plasma Triglyceride Levels Plasma Conc. ([2]; 30 mg/kg oral once a day, 14 days, P < 0.05): 482.4 ± 10.5 mg/dL
body weight change accompanying the reduction in blood glucose ([2]; 30 mg/kg/day): without significant body weight change
decrease in plasma triglyceride levels ([2]; 30 mg/kg/day, P<0.05): 20%
Plasma Glucose % Change from Diabetic Control [2, 5]: −47.5%
Plasma Glucose % of Diabetic Control [2, 5]: 52.5%
Plasma Triglyceride % Change from Diabetic Control [2, 5]: −17.7%
Plasma Triglyceride % of Diabetic Control [2, 5]: 82.3%
Plasma Triglyceride Levels Plasma Conc. [2, 5]: 498.6 ± 58.8 mg/dL
Body Weight Change [2, 6]: +75.7 ± 2.7 (P < 0.01) Gms
Plasma Glucose Levels Plasma Conc. [2, 6]: 170.3 ± 14.7 mg/dL
Plasma Glucose % Change from Diabetic Control [2, 7]: −49.5%
Plasma Glucose % of Diabetic Control [2, 7]: 50.5%
Plasma Triglyceride % Change from Diabetic Control [2, 7]: −30.2%
Plasma Triglyceride % of Diabetic Control [2, 7]: 69.8%
Body Weight Change [2, 8]: +64.4 ± 6.0 (P < 0.01) Gms
Plasma Glucose Levels Plasma Conc. [2, 8]: 166.4 ± 11.1 mg/dL
Plasma Triglyceride Levels Plasma Conc. [2, 8]: 423.0 ± 33.6 mg/dL
decrease in plasma triglyceride levels ([2]; 300 mg/kg/day, P<0.01): 30%
decrease in blood glucose levels ([2]; 30 to 300 mg/kg, 14 days, P<0.01): 25–50%
efficacy as adjunctive therapy or monotherapy in simple and complex partial seizures and secondarily generalized seizures [3]: effective
